Values quoted from earlier work as cited in article PMC5814754, “Quantitative, Wide-Spectrum Kinase Profiling in Live Cells for Assessing the Effect of Cellular ATP on Target Engagement” (Cell Chemical Biology, 2018).

Columns and labels:
[1] = tested on: ABL; details: read-out: Crizotinib IC50 Biochemical; ref Cui et al., 2011; cited from earlier work
[2] = tested on: MET; details: read-out: Crizotinib IC50 Biochemical; ref Cui et al., 2011; cited from earlier work
[3] = tested on: TRKA; details: read-out: Live Cell IC50 Phospho Elisa; ref Cui et al., 2011; cited from earlier work
[4] = tested on: TRKB; details: read-out: Crizotinib IC50 Biochemical; ref Cui et al., 2011; cited from earlier work
[5] = tested on: LCK; details: read-out: Crizotinib IC50 Biochemical; ref Cui et al., 2011; cited from earlier work

In the case of `C[C@@H](Oc1cc(-c2cnn(C3CCNCC3)c2)cnc1N)c1c(Cl)ccc(F)c1Cl` [Crizotinib], the IC50 [1] is given as […], the IC50 [2] is given as […] and the IC50 [3] is given as 580 nM. For the same molecule, the IC50 [4] was […] and the IC50 [5] was […].
